Reference: patent US5444084A, “Substituted heterocyclic derivative having squalene epoxidase inhibition action and its use” (Banyu Pharmaceutical Co., Ltd., priority 1992, dated 1995)

Legend:
Human squalene epoxidase = biological target: T1, Human squalene epoxidase (Homo sapiens, UniProt Q14534); test: Human squalene epoxidase inhibition action; type: biochemical; settings: solubilized Hep-G2 microsome fraction, 8 μM 3H-squalene, 37° C., 60 minutes, read-out: Inhibition rate at 3 μM concentration
T1 construct: The resultant supernatant is used as the squalene epoxidase fraction in the later-described test; endogenous in cells; host or cells: Hep-G2 human hepatoma cells (microsomes solubilized with Triton X-100)
Procedure: Squalene epoxidase inhibition action
(1) Preparation of squalene epoxidase
Human squalene epoxidase is prepared in accordance with the process disclosed in J. Biol. Chem., 245, 1670 (1970); ibid., 250, 1572 (1975).
Namely, human hepatoma (Hep-G2) cells are cultured at 37° C. under air containing 5% carbon dioxide. After completion of the culture, the cells are scraped and collected by centrifugation. The cells are suspended in 0.1M Tris-HCl buffer (pH 7.5) (1×10^8 cells/ml), the suspension is homogenized and centrifuged at 9750 Xg for 10 minutes, and then the sediment is washed with 0.1M Tris-HCl buffer (pH 7.5) and centrifuged at 105,000 Xg for 1 hour. The resultant microsome is suspended in 0.1M Tris-HCl buffer (pH 7.5) so that the protein amount becomes 20 mg/ml, and solubilized by stirring the suspension under ice cooling in the presence of 1% Triton X-100. After this solubilization treatment, the concentration of Triton X-100 is diluted to 0.125% with 1 mM EDTA and 1 mM dithiothreitol, and the dilution is centrifuged at 105,000 Xg for 1 hour. The resultant supernatant is used as the squalene epoxidase fraction in the later-described test.
(2) Assay of squalene epoxidase activity
Assay of human squalene epoxidase activity is carried out according to the method disclosed in J. Biol. Chem., 245, 1670 (1970).
Namely, 3 μl of a dimethyl sulfoxide solution of a test chemical is added to a solution consisting of 0.2 ml of the squalene epoxidase fraction [protein amount 0.4 mg, 0.1% Triton X-100, […] Tris-HCl buffer (pH 7.5)] prepared in (1), 100 μM FAD, 1 mM NADPH, 1 mM EDTA and 8 μM ^3 H-squalene-Tween 80 suspension to make the total volume 0.3 ml, and the mixture is subjected to reaction with shaking at 37° C. for 60 minutes. 0.3 ml of 10% potassium hydroxide-methanol solution is added to discontinue the reaction, and the mixture is heated at 75° C. for 1 hour. Then the non-saponified substance is extracted with petroleum ether and the extract is concentrated to dryness under a nitrogen stream. The resultant residue is dissolved in a small amount of ethyl ether, pre-coated Silicagel TCL is spotted with the extract, and development is carried out with benzeneethyl acetate (99.5:0.5). The position of the ^3 H-squalene-2,3 -epoxide in the TLC is confirmed using ergosterol acetate as a marker, and the ^3 H-squalene-2,3-epoxide portion in the TLC is cut out. The TLC piece is immersed in a toluene series scintillator and measurement is made using a liquid scintillation counter. Thereby, the inhibition rates (%) against squalene epoxidase at 3 μM concentration of compounds of this invention are determined, and the results are shown in the following Table 1.

cholesterol biosynthesis = test: Inhibition test of in vivo cholesterol biosynthesis in rat; design: species or system rat (female SD); settings: 3 mg/kg oral, n = 5, rat; for 14C-cholesterol, dpm: dpm of produced 14C-cholesterol in 1 ml of plasma, control values 2282-3218 dpm; for Cholesterol biosynthesis inhibition rate: versus control group
Procedure: Inhibition test of in vivo cholesterol biosynthesis
In this in vivo test, female SD rats (5 weeks old) are used. The rats are raised for 9 days under an environment where illumination is applied with reversed day and night (dark from 6 a.m. to 6 p.m.), and meanwhile they can freely ingest a solid feed and water. A test chemical is orally administered two hours before dark 6 o'clock when cholesterol biosynthesis becomes maximum. The compound is dissolved in a middle-chain fatty acid triglyceride, and orally administered at 3 mg/kg in an amount of 0.5 ml/100 g body weight. Further, the same volume of the solvent (vehicle) used is administered to control animals. […] after the administration of the test chemical, 20μ Ci/100 g body weight of ^14 C-sodium acetate (56 m Ci/m mole) is intraperitoneally administered to the rats, respectively. At dark 6 o'clock blood is sampled from the abdominal artery of each animal under ether anesthesia and centrifuged to separate the plasma.
2 ml of 15% potassium hydroxide-methanol solution is added per ml of the plasma, and the mixture is heated at 75° C. for 3 hours to carry out saponification. Each sample is extracted twice, each time with 2 ml of petroleum ether, and the extract is washed with 2 ml of distilled water. Finally each extract is evaporated to dryness under a nitrogen stream.
The resultant residue is dissolved in a small amount of ethyl ether, and a pre-coated silica gel TLC is spotted with the total amount of the solution. This plate is developed with a solvent system of hexane/ethyl ether/acetic acid (85:15:4). Coloring is carried out with iodine, and radioactivity at the cholesterol part is assayed using a liquid scintillation counter.
The results (Table 2) are expressed by dpm values of produced ^14 C-cholesterol existing in 1 ml of each plasma. Further, the inhibition of cholesterol biosynthesis is calculated by comparing the amounts of ^14 C-cholesterol biosynthesis between the test groups and the control group.

rats (SD male) = test: Subacute toxicity test; type: in vivo, rat (SD male); settings: 300 mg/kg per day oral for 7 days, 3 animals per group, 0.5% aqueous methylcellulose suspension
Procedure: Subacute toxicity test example
The compound of Example 34 was suspended in 0.5% aqueous methylcellulose solution and orally administered to groups of rats (SD male), each group consisting of 3 animals, at a rate of 300 mg/kg per day for 7 days.

T1 sequence (Q14534 whole entry): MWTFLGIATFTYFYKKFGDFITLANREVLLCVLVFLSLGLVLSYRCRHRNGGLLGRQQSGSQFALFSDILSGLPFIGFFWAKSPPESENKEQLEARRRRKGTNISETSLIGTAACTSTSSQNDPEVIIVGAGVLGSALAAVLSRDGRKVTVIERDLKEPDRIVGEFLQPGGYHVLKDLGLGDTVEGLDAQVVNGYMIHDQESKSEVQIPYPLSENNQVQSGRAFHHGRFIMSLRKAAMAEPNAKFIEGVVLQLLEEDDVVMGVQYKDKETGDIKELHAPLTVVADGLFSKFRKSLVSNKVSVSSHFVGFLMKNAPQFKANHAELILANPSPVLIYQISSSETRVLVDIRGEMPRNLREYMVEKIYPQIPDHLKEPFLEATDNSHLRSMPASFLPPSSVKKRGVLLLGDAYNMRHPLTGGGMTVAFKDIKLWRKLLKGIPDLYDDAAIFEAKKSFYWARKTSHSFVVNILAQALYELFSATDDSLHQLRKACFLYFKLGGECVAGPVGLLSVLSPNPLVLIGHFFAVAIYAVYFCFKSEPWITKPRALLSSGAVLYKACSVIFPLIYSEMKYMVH

CC(C)(C)C#C/C=C/CC(CO)Cc1cccc(/C=C/c2cccc(-c3ccsc3)c2)c1 (stereo not drawn) [Example 12, (E,E)-2-(6,6-dimethyl-2-hepten-4-ynyl)-3-[3-[2-[3-(3-thienyl)phenyl]ethenyl]phenyl]propanol]
inhibition at 3 µM (Human squalene epoxidase): 100%
14C-cholesterol, dpm (cholesterol biosynthesis): 1208 dpm
Cholesterol biosynthesis inhibition rate (cholesterol biosynthesis): 61%

CC(C)(C)C#C/C=C/C/C(=C\CCCCOc1cccc(-c2ccsc2)c1)CO [Example 2, (E,E)-2-(6,6-dimethyl-2-hepten-4-ynyl)-7-[3-(3-thienyl)phenoxy]-2-hepten-1-ol]
inhibition at 3 µM (Human squalene epoxidase): 100%

C/C(=C/CCC/C=C/c1cccc(-c2ccsc2)c1)C/C=C/C#CC(C)(C)C [Example 18, 3-[3-[(1E,6Z,9E)-7,13,13-trimethyltetradeca-1,6,9-trien-11-ynyl]phenyl]thiophene]
inhibition at 3 µM (Human squalene epoxidase): 99%

C/C(=C/c1cccc(OCc2cc(-c3ccsc3)cs2)c1)C/C=C/C#CC(C)(C)C [Example 22, 2-[3-[(1Z,4E)-2,8,8-trimethylnona-1,4-dien-6-ynyl]phenoxymethyl]-4-(3-thienyl)thiophene]
inhibition at 3 µM (Human squalene epoxidase): 100%

CSC/C(=C/CCCCOc1cccc(-c2ccsc2)c1)C/C=C/C#CC(C)(C)C [Example 42, (E,E)-3-[3-(12,12-dimethyl-6-methylthiomethyltrideca-5,8-dien-10-ynyloxy)phenyl]thiophene]
inhibition at 3 µM (Human squalene epoxidase): 100%

COC/C(=C/CCCCOc1cccc(-c2ccsc2)c1)C/C=C/C#CC(C)(C)C [Example 30, (E,E)-3-[3-(6-methoxymethyl-12,12-dimethyltrideca-5,8-dien-10-ynyloxy)phenyl]thiophene]
inhibition at 3 µM (Human squalene epoxidase): 100%

COC/C(=C/CCC/C=C/c1cccc(-c2ccsc2)c1)C/C=C/C#CC(C)(C)C [Example 29, (E,E,E)-3-[3-(7-methoxymethyl-13,13-dimethyltetradeca-1,6,9-trien-11-ynyl)phenyl]thiophene]
inhibition at 3 µM (Human squalene epoxidase): 100%

COC/C(=C/c1cccc(CCc2cccc(-c3ccsc3)c2)c1)C/C=C/C#CC(C)(C)C [Example 38, (E,E)-3-[3-[2-[3-(2-methoxymethyl-8,8-dimethylnona-1,4-dien-6-ynyl)phenyl]ethyl]phenyl]thiophene]
inhibition at 3 µM (Human squalene epoxidase): 100%
14C-cholesterol, dpm (cholesterol biosynthesis): 350 dpm
Cholesterol biosynthesis inhibition rate (cholesterol biosynthesis): 85%

CC(C)(C)C#C/C=C/C/C(=C\CCC/C=C/c1cccc(-c2ccsc2)c1)CO [Example 1]
inhibition at 3 µM (Human squalene epoxidase): 100%
14C-cholesterol, dpm (cholesterol biosynthesis): 275 dpm
Cholesterol biosynthesis inhibition rate (cholesterol biosynthesis): 91%

C/C(=C/c1cccc(/C=C/c2cccc(-c3ccsc3)c2)c1)C/C=C/C#CC(C)(C)C [Example 23, 3-[3-[2-[3-[(1Z,4E)-2,8,8-trimethylnona-1,4-dien-6-ynyl]phenyl]ethenyl]phenyl]thiophene]
inhibition at 3 µM (Human squalene epoxidase): 100%

COCC(C/C=C/C#CC(C)(C)C)Cc1cccc(/C=C/c2cccc(-c3ccsc3)c2)c1 (stereo not drawn) [Example 34, (E,E)-3-[3-[2-[3-(2-methoxymethyl-8,8-dimethyl-4-nonen-6-ynyl)phenyl]ethenyl]phenyl]thiophene]
death and other toxic symptoms (rats (SD male)): death and other toxic symptoms were not observed at all
inhibition at 3 µM (Human squalene epoxidase): 100%
14C-cholesterol, dpm (cholesterol biosynthesis): 347 dpm
Cholesterol biosynthesis inhibition rate (cholesterol biosynthesis): 85%

CC(C)(C)C#C/C=C/C/C(=C\c1cccc(COc2cccc(-c3ccsc3)c2)c1)CO [Example 4, (E,E)-2-(6,6-dimethyl-2-hepten-4-ynyl)-3-[3-[3-(3-thienyl)phenoxymethyl]phenyl]-2-propen-1-ol]
inhibition at 3 µM (Human squalene epoxidase): 100%

COC(C)(C)C#C/C=C/C/C(=C\c1cccc(/C=C/c2cccc(-c3ccsc3)c2)c1)CO [Example 8, (E,E,E)-2-(6-methoxy-6-methyl-2-hepten-4-ynyl)-3-[3-[2-[3-(3-thienyl)phenyl]ethenyl]phenyl]-2-propen-1-ol]
inhibition at 3 µM (Human squalene epoxidase): 100%

CC(C)(C)C#C/C=C/C/C(=C\c1cccc(OCc2cc(-c3ccsc3)cs2)c1)CO [Example 5, (E,E)-2-(6,6-dimethyl-2-hepten-4-ynyl)-3-[3-[4-(3-thienyl)-2-thienylmethoxy]phenyl]-2-propen-1-ol]
inhibition at 3 µM (Human squalene epoxidase): 100%

CC(C)(C)C#C/C=C/C/C(=C\c1cccc(/C=C/c2cccc(-c3ccsc3)c2)c1)CO [Example 6, (E,E,E)-2-(6,6-dimethyl-2-hepten-4-ynyl)-3-[3-[2-[3-(3-thienyl)phenyl]ethenyl]phenyl]-2-propen-1-ol]
inhibition at 3 µM (Human squalene epoxidase): 100%
14C-cholesterol, dpm (cholesterol biosynthesis): 871 dpm
Cholesterol biosynthesis inhibition rate (cholesterol biosynthesis): 73%

COCC(C/C=C/C#CC(C)(C)C)Cc1cccc(OCc2cccc(-c3ccsc3)c2)c1 (stereo not drawn) [Example 32, (E)-3-[3-[3-(2-methoxymethyl-8,8-dimethyl-4-nonen-6-ynyl)phenoxymethyl]phenyl]thiophene]
inhibition at 3 µM (Human squalene epoxidase): 100%

COC(C)(C)C#CC#CC/C(=C\c1cccc(/C=C/c2cccc(-c3ccsc3)c2)c1)CO [Example 10, (E,E)-2-(6-methoxy-6-methyl-2,4-heptadiynyl)-3-[3-[2-[3-(3-thienyl)phenyl]ethenyl]phenyl]-2-propen-1-ol]
inhibition at 3 µM (Human squalene epoxidase): 100%

CC(O)C(C/C=C/C#CC(C)(C)C)Cc1cccc(/C=C/c2cccc(-c3ccsc3)c2)c1 (stereo not drawn) [Example 43, (E,E)-3-(6,6-dimethyl-2-hepten-4-ynyl)-4-[3-[2-[3-(3-thienyl)phenyl]ethenyl]phenyl]-2-butanol]
inhibition at 3 µM (Human squalene epoxidase): 100%

C/C(=C/c1cccc(COc2cccc(-c3ccsc3)c2)c1)C/C=C/C#CC(C)(C)C [Example 21, 3-[3-[3-[(1Z,4E)-2,8,8-trimethylnona-1,4-dien-6-ynyl]phenylmethoxy]phenyl]thiophene]
inhibition at 3 µM (Human squalene epoxidase): 100%

CC(C)(C)C#C/C=C/CC(CO)Cc1cccc(OCc2cccc(-c3ccsc3)c2)c1 (stereo not drawn) [Example 11, (E)-2-(6,6-dimethyl-2-hepten-4-ynyl)-3-[3-[3-(3-thienyl)phenylmethoxy]phenyl]propanol]
inhibition at 3 µM (Human squalene epoxidase): 88%

COC/C(=C/c1cccc(OCc2cc(-c3ccsc3)cs2)c1)C/C=C/C#CC(C)(C)C [Example 33, (E,E)-2-[3-(2-methoxymethyl-8,8-dimethylnona-1,4-dien-6-ynyl)phenoxymethyl]-4-(3-thienyl)thiophene]
inhibition at 3 µM (Human squalene epoxidase): 100%

C=CC(C/C=C/C#CC(C)(C)C)Cc1cccc(/C=C/c2cccc(-c3ccsc3)c2)c1 (stereo not drawn) [Example 44]
inhibition at 3 µM (Human squalene epoxidase): 100%
